Test results taken from patent publication US5336485A, “Method for protecting animals against tacrine induced cytotoxic injury using sterol compounds” (priority 1993, dated 1994).

Columns and labels:
rat hepatocytes [1] = conditions: cited from earlier work
central nervous system = assay: CCl4 central nervous system toxicity in rats; assay type: in vivo, rat; conditions: pretreatment
rat hepatocytes [2] = assay: Cellular alpha-tocopherol and tocopherol ester content of rat hepatocytes; conditions: for Hepatocyte Concentration Alpha-T / Hepatocyte Concentration Alpha-TS: EMS 3 h
Procedure: At each time-point, rapid separation of viable from non-viable hepatocytes and medium was accomplished by the dibutyl phthalate centrifugation method. Cell viability was monitored hourly by measuring LDH leakage with a Cobas Analyzer and intracellular [K^+ ]with a flame photometer. LDH was routinely measured in the medium while intracellular K^+ was measured in the 10% perchloric acid lysate of viable cells. Lipid peroxidation was determined by measuring TBA reactants in the medium. […] The samples were diluted with 0.3 ml 1% ascorbate in 0.1 M SDS, 0.4 ml ethanol, sonicated and extracted once with 0.8 ml hexane. Next, the hexane extract was evaporated to dryness with N2, the residue dissolved in 2.5% ascorbate in methanol (1 ml) and analyzed (100 μl) by high-performance liquid chromatograph (HPLC). […] The mobile phase, 95% MeOH was run isocratically and the HPLC retention times for delta and alpha-tocopherol were approximately eleven and sixteen minutes, respectively. […] Following the addition of 0.2 ml 4 M HC1, the neutralized KOH-MeOH extracted with 0.8 ml hexane. […] A standard curve for each tocopherol congener was run with every assay. […] Only viable cells were monitored in the laboratory procedures.
The hepatocytes were subsequently exposed to 50mM EMS for three hours.

[3] = Cytotoxicity of various toxic insults (A23187, cadmium, O2, doxorubicin, CCl4, hypoxia) in rat hepatocytes; assay type: cell-based; conditions: rat, hepatocytes; Control (vehicle only, no insult), 25 μM alpha-TS; read-out: % Cell Death
Procedure: (§1) Only viable cells were monitored in the laboratory procedures.
(§2) In vitro experiments were performed to determine if alpha-TS could protect cells from different toxic insults. Under physiological conditions, rat hepatocytes were incubated with medium containing 25 μM alpha-TS. The hepatocytes were exposed to EMS, a potent mutagen and alkylating agent; the ionophore A23187, a membrane active compound that permits the equilibration of divalent cations across cell membranes; cadmium, a heavy metal, environmental contaminant, and known carcinogen who's mechanism of toxicity remains unknown; 95% O2, an excessive oxygen insult that produces an abundance of toxic oxygen free radicals and reactive oxygen intermediates in the cell; doxorubicin (adriamycin), a clinically important antitumor agent with cytotoxic effects proposed to result from its metabolic activation and the generation or reactive oxygen species; carbon tetrachloride (CCl4); and hypoxia (an absence of oxygen followed by reoxygenation).

rat hepatocytes [4] = assay: as above; assay type: cell-based
Procedure: as §1, §2

[5] = Blood alpha-TS content after oral dosing in humans; assay type: in vivo, human; conditions: 400 units per day, one month, three males
From the text: In a one month study with three human males aging from 35 to 62 years 400 units of alpha-tocopheryl succinate were taken per day. Subsequent blood samples were taken from each individual and analyzed for alpha-T and alpha-TS content. […] However, in select individuals, as determined possibly by ethnic origin or diet, tissue alpha-TS accumulation can occur with oral dosing. The absence of alpha-TS hydrolysis in the gut of the one individual in the study who had substantial amounts of alpha-TS in plasma may be attributed to the absence of duodenal secretions after oral alpha-TS administration (lack of dietary fats to stimulate duodenal secretions at the time of alpha-TS administration).

Sprague-Dawley rats = assay: Paraquat lethality in rats; conditions: rat, in vivo
Procedure: Rats received a 100 mg/kg (ip) dose of alpha-TS twenty four hours prior to a 40 mg/kg (ip) insult of paraquat which is a lung specific toxic agent. The rats also received a 100 mg/kg (ip) dose of alpha-TS each day after the paraquat insult.

L1210 leukemia cells = assay: Doxorubicin in L1210 leukemia bearing CDF1 mice; assay type: in vivo, mouse; conditions: alpha-TS tris salt 100 mg/kg ip
Procedure: The experiments were conducted in accordance with NCI Protocol 1,100. FIGS. 8a-d show the experimental results obtained when male CDF1 mice (n=6) received either vehicle only or 100mg/kg body weight i.p. dose of either alpha-TS or cholesteryl succinate 20 hours prior to DOX administration. FIGS. 8a-d respectively show the results obtained when the mice received 10, 15, 20, and 25 mg DOX/kg body weight. […] FIGS. 9a-d show the experimental results obtained when male CDF1 mice ([…]) were injected (i.p.) with 10^6 murine L1210 leukemia cells followed immediately by an injection of alpha-TS tris salt (100 mg/kg, i.p.) or saline injection (vehicle), and twenty hours later (Day=0) each mouse in three of the groups was i.p. injected with 15, 20, or 25 mg DOX/kg body weight ([…]). Survival was monitored for twenty days.

[6] = 50 mM EMS + 25 μM alpha-TS + 100 μM Bis-(p-nitrophenyl) phosphate
[7] = 50 mM EMS + 25 μM alpha-TS + 100 μM Diethyl p-nitrophenyl phosphate

## Cc1c(C)c2c(c(C)c1OC(=O)CCC(=O)O)CC[C@@](C)(CCC[C@H](C)CCC[C@H](C)CCCC(C)C)O2 [alpha-TS, d-alpha-tocopheryl succinate]
Rat hepatocytes [1]; 3.5 mM Ca2+
  cytoprotective effect at 3.5 mM Ca2+: eliminated the cytoprotective effect
Rat hepatocytes [1]; Ca2+ free medium
  protection of rat hepatocytes from toxic effects of drugs: protected from the toxic effects of drugs
Central nervous system
  recovery from acute CNS toxic manifestations of CCl4: several days before rats which are not treated with alpha-TS
Rat hepatocytes [2]; 0.5 μM
  cellular alpha-TS content: approximately 0.025 nmoles/10^6 cells
Rat hepatocytes [2]; 2.0 μM
  Hepatocyte Concentration Alpha-T: 0.4 ± 0.1 nmol/10^6 cells
  Hepatocyte Concentration Alpha-TS: 0.2 ± 0.1 nmol/10^6 cells
Rat hepatocytes [2]; 10 μM
  Hepatocyte Concentration Alpha-T: 0.8 ± 0.1 nmol/10^6 cells
  Hepatocyte Concentration Alpha-TS: 0.7 ± 0.1 nmol/10^6 cells
Rat hepatocytes [2]; 25 μM dose
  cellular accumulation rate of alpha-TS: 1.65 nmol/10^6 cells/hr
  cellular release rate of succinate (as measured by alpha-tocopherol release): 0.65 nmol/10^6 cells/hr
Rat hepatocytes [2]; 25 μM
  Hepatocyte Concentration Alpha-T: 0.9 ± 0.1 nmol/10^6 cells
  Hepatocyte Concentration Alpha-TS: 2.5 ± 0.1 nmol/10^6 cells
Rat hepatocytes [2]; 25 μM, Table 2
  Cellular Tocopherol ester: 2.6 nmoles/10^6 cells
  Cellular alpha-T: 0.7 nmoles/10^6 cells
Rat hepatocytes [2]; 250 μM
  Hepatocyte Concentration Alpha-T: 0.9 ± 0.1 nmol/10^6 cells
  Hepatocyte Concentration Alpha-TS: 7.6 ± 1.7 nmol/10^6 cells
Rat hepatocytes [2]; 50 mM EMS + 25 μM alpha-TS
  Cellular alpha-T: .81 ± .05 nmoles/10^6 cells
  Cellular alpha-TS: 2.73 ± .67 nmoles/10^6 cells
Rat hepatocytes [2]; [6]
  Cellular alpha-T: .20 ± .05 nmoles/10^6 cells
  Cellular alpha-TS: 2.61 ± .61 nmoles/10^6 cells
Rat hepatocytes [2]; [7]
  Cellular alpha-T: .19 ± .05 nmoles/10^6 cells
  Cellular alpha-TS: 2.56 ± .24 nmoles/10^6 cells
Rat hepatocytes [2]; .5 μM
  Hepatocyte Concentration Alpha-T: 0.2 ± 0.1 nmol/10^6 cells
[3]
  cytotoxicity at 25 µM: 21%
Rat hepatocytes [4]; 95% Oxygen, 25 μM alpha-TS (no alpha-TS 57)
  % Cell Death: 23%
Rat hepatocytes [4]; CCl4 2.5 mM, 25 μM alpha-TS (no alpha-TS 63)
  % Cell Death: 38%
Rat hepatocytes [4]; Cadmium 0.1 mM, 25 μM alpha-TS (no alpha-TS 70)
  % Cell Death: 24%
Rat hepatocytes [4]; Doxorubicin 100 μM, 25 μM alpha-TS (no alpha-TS 62)
  % Cell Death: 28%
Rat hepatocytes [4]; Hypoxia 4 hrs N2 and 2 hrs O2, 25 μM alpha-TS (no alpha-TS 70)
  % Cell Death: 49%
Rat hepatocytes [4]; Ionophore A23187 5 μM, 25 μM alpha-TS (no alpha-TS 73)
  % Cell Death: 24%
Rat hepatocytes [4]; rat hepatocytes, 25 μM, 5 μM A23187
  protection from lethal effects of ionophore A23187: protected rat hepatocytes from the lethal effects
[5]
  alpha-TS in plasma and erythrocytes: Substantial amounts of alpha-TS in plasma and erythrocytes were observed for only one individual
Sprague-Dawley rats
  survival time of paraquat exposed rats: 6 days
L1210 leukemia cells; DOX 10 mg/kg
  survival of DOX treated tumor bearing mice (FIG. 9b): no effect on the survival of DOX treated animals
L1210 leukemia cells; DOX 15 and 25 mg/kg
  survival of tumor bearing mice at higher DOX: significant protection from DOX
